For 1 compound, Ki results are on record in BindingDB's records for doi:10.1021/jm030241s (National Cancer Institute-Frederick, 2003).

pKi: −log10 of the molar value.

The target in the test is Thymidine kinase (Human herpesvirus 1). The test is described as follows: Binding affinity constant against HSV-1 thymidine kinase.

As usually defined, the pKi is the negative decadic logarithm of the Ki, by convention in mol/L. For `O=c1[nH]c(=O)n([C@H]2C[C@H](O)[C@]3(CO)C[C@H]23)cc1C=CBr` [5-((E)-2-Bromo-vinyl)-1-((1R,3S,4S,6S)-4-hydroxy-5-hydroxymethyl-bicyclo[3.1.0]hex-2-yl)-1H-pyrimidine-2,4-dione], the negative logarithm of the Ki (pKi) was 4.20.
